Assay results as given in ChEMBL document CHEMBL4804283, “Stk19 inhibitors for treatment of cancer” (2020).
Activity calls are given as the source filed them.

Legend:
[1] = biological target: T1, Inactive serine/threonine-protein kinase 19 (Homo sapiens) (UniProt P49842); assay: Inhibition of recombinant human STK19 assessed as NRAS phosphorylation at 1-3 uM relative to control
T1 sequence (whole entry): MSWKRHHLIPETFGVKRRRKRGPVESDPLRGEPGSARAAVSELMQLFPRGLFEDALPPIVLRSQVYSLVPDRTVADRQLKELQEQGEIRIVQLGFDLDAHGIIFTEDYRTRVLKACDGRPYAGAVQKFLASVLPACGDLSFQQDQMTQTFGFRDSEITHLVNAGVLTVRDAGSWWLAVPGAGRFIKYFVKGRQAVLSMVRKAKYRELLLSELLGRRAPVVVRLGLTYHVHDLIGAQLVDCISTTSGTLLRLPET

[2] = biological target: T1, Inactive serine/threonine-protein kinase 19 (Homo sapiens); assay: Inhibition of STK19 in human WM2032 cells expressing NRAS Q61R and wild-type BRAF at 1-3 uM assessed as MEK-ERK signaling relative to control; format: cell-based
SK-MEL-2 = assay: Antitumor activity against human SK-MEL-2 cells xenografted in nude mouse assessed as inhibition of cancer cell proliferation at 25 mg/kg, administered for 21 days; format: functional, organism-based
WM2032 = assay: Growth inhibition of human WM2032 cells expressing NRAS Q61R and wild-type BRAF at 1-3 uM relative to control; format: functional, cell-based

COc1cc2nc(NC3CC3)nc(NC3CCN(C(C)C)CC3)c2cc1OC.O=C(O)C(F)(F)F
active: Activity [1] | inhibition [2] | Activity (SK-MEL-2) | Activity (WM2032)
